Patent US8664380B2, “Heterocyclic compound and use thereof” (Takeda Pharmaceutical Company Limited, priority 2008, dated 2014)
Counter-ions that a name gives are not always drawn.

What was measured:
[1] = tested on: plasma renin activity; assay: Ex vivo plasma renin activity (PRA) test after oral administration; type: in vivo, Macaca fascicularis; conditions: for inhibition at 1 mg/kg: Macaca fascicularis, po, 4 h, read-out: Macaca fascicularis plasma renin activity, PPA inhibitory activity (%, n = 3-7); for Macaca fascicularis plasma renin activity, PPA inhibitory activity (%, n = 3-7): male macaca fascicularis, 1 mg/kg orally in 0.5% methylcellulose, plasma 4 hr after administration, amended with vehicle group
Method: Male macaca fascicularis was used. […] PRA was calculated by the following formula.

[2] = target: T1, Human renin (Homo sapiens, UniProt P00797); assay: Human renin inhibition; angiotensin I formed from angiotensinogen quantified by EIA; conditions: for inhibition at 0.1 µM: read-out: Human renin inhibitory activity, inhibitory activity (%) at 0.1 μM; for Human renin inhibitory activity, inhibitory activity (%) at 0.1 μM: 0.1 μM test compound, substrate human angiotensinogen, 37° C. 30 min
T1 sequence (P00797 67-406): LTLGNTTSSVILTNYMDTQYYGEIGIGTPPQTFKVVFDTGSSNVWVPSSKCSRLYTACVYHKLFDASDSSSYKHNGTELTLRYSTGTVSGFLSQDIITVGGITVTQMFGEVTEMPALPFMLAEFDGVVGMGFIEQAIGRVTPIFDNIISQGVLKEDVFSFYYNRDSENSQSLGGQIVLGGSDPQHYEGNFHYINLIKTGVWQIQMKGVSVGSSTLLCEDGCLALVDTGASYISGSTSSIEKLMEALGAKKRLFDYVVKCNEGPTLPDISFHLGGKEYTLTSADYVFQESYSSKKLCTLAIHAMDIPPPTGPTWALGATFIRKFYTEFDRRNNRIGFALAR
Method: As a substrate for renin activity measurement, the angiotensinogen mentioned in (5) above was used. 1 μl each of the test compound (containing 100% DMSO) was added to each well of a 384-well plate (ABgene). Renin was diluted with a buffer solution for reaction (20 mM sodium phosphate (pH 7.4)) to a concentration of 57 pM, and 14 μl each of the dilution was added to each well. The dilution was left to stand at 37° C. for 10 min, and then 5 μl of each of a 6 μM solution of substrate angiotensinogen was added to each well to initiate the reaction. […] The amount of angiotensin I produced by an enzyme reaction was quantified by Enzyme Immuno Assay (EIA) described below.
Anti-angiotensin I antibody (Peninsula Laboratories Inc.) diluted 5,000-fold with PBS was added to each well of a 384 well black plate (Nalge Nunc International Co., Ltd.) by 25 μl, and left standing overnight at 4° C. to immobilize the antibody in the plate. The antibody solution was removed, PBS solution (100 μl) containing 1% BSA was added to each well, and the mixture was left standing at room temperature for 2 hr for blocking. The blocking solution was removed, and each well was washed 5 times with 100 μl of 0.05% Tween20-PBS. […] Then, a biotinated angiotensin I solution (AnaSpec, 15 μl) prepared to 1.6 nM with a buffer [20 mM tris-hydrochloric acid (pH 7.4), 150 mM sodium chloride, 0.01% BSA, 0.05% Tween20] was added to each well, mixed with a plate mixer and left standing at room temperature for 1 hr. The solutions were removed from each well, and each well was washed 5 times with 100 μl of 0.05% Tween20-PBS. Horseradish peroxydase Streptavidin (PIERCE Biotechnology inc., 25 μl) diluted to 100 ng/ml with a buffer [20 mM tris-hydrochloric acid (pH 7.4), 150 mM sodium chloride, 0.1% BSA, 0.05% Tween 20] was added to each well and the mixture was left standing at room temperature for 30 min. The solutions were removed from each well, and each well was washed 5 times with 100 μl of 0.05% Tween20-PBS. SuperSignal ELISA femto Maximum Sensitivity Substrate (PIERCE Biotechnology Inc.) was added by 25 μl and luminescence intensity was measured by EnVision (Perkin Elmer Inc.). An analytical curve was drawn from the luminescence intensity of wells containing an angiotensin I standard solution, and the amount of angiotensin I produced by an enzyme reaction was calculated and used as an index of renin activity.

`COCCCCc1c(C(=O)N(CC(C)C)[C@@H]2CNC[C@H](C(=O)N3CCOCC3)C2)nnn1-c1ccccc1F` [Example 233, 1-(2-fluorophenyl)-5-(4-methoxybutyl)-N-(2-methylpropyl)-N-[(3S,5R)-5-(morpholin-4-ylcarbonyl)piperidin-3-yl]-1H-1,2,3-triazole-4-carboxamide hydrochloride] was tested, and the inhibition at 1 mg/kg [1] was 67% and the inhibition at 0.1 µM [2] was 97%.
In the case of `COCCCCc1c(C(=O)N(CC(C)C)[C@@H]2CNC[C@H](C(=O)N3CCOCC3)C2)nnn1-c1ccccc1Cl` [Example 235, 1-(2-chlorophenyl)-5-(4-methoxybutyl)-N-(2-methylpropyl)-N-[(3S,5R)-5-(morpholin-4-ylcarbonyl)piperidin-3-yl]-1H-1,2,3-triazole-4-carboxamide hydrochloride], the inhibition at 1 mg/kg [1] is reported as 62% and the inhibition at 0.1 µM [2] is reported as 97%.
For “N-{(3S,5R)-5-[(1R)-1-hydroxyethyl]piperidin-5-yl}-1-(4-methoxybutyl)-N-(2-methylpropyl)-1H-benzimidazole-2-carboxamide carboxamide dihydrochloride [Example 74-2]”, the “Macaca fascicularis plasma renin activity, PPA inhibitory activity (%, n = 3-7)” value [1] was 54% and the “Human renin inhibitory activity, inhibitory activity (%) at 0.1 μM” value [2] was 96%.
With “N-{(3S,5R)-5-[(1S)-1-hydroxyethyl]piperidin-5-yl}-1-(4-methoxybutyl)-N-(2-methylpropyl)-1H-benzimidazole-2-carboxamide dihydrochloride [Example 74-1]” the “Macaca fascicularis plasma renin activity, PPA inhibitory activity (%, n = 3-7)” value [1] was 90% and the “Human renin inhibitory activity, inhibitory activity (%) at 0.1 μM” value [2] was 94%.
With “N-{(3S, 5R)-5-[(1R)-1-hydroxypropyl]piperidin-5-yl}-1-(4-methoxybutyl)-N-(2-methylpropyl)-1H-benzimidazole-2-carboxamide dihydrochloride [Example 75-2]” the “Macaca fascicularis plasma renin activity, PPA inhibitory activity (%, n = 3-7)” value [1] was 71% and the “Human renin inhibitory activity, inhibitory activity (%) at 0.1 μM” value [2] was 90%.
With “N-{(3S, 5R)-5-[(1S)-1-hydroxypropyl]piperidin-5-yl}-1-(4-methoxybutyl)-N-(2-methylpropyl)-1H-benzimidazole-2-carboxamide dihydrochloride [Example 75-1]” the “Macaca fascicularis plasma renin activity, PPA inhibitory activity (%, n = 3-7)” value [1] was 86% and the “Human renin inhibitory activity, inhibitory activity (%) at 0.1 μM” value [2] was 95%.
